Reference: patent publication US11564919B1, “Small molecule inhibitors for treatment of alpha viruses” (priority 2021, dated 2023)
“Also recorded” adds a separate entry of the source.

Experiments:
CHIKV-GFP reporter virus = experiment: microbe, parasite or virus in culture; type: cell-based, Chikungunya virus (CHIKV) strain 181/25; settings: for IC50: Chikungunya virus, HeLa, read-out: IC50 against CHIKV-GFP reporter virus
VEEV TC-83 = type: cell-based, Venezuelan Equine Encephalitis Virus
RVFV MP12 = type: cell-based, Rift Valley fever virus
Zika virus (ZIKV) = type: cell-based
CHIKV 181/25 [1] = type: cell-based, Chikungunya virus
CHIKV 181/25 [2] = type: cell-based, Chikungunya virus; remark: listed apart in the source
HeLa cells = settings: 30 μM, 48 hours
A549 cells = settings: 30 μM, 48 hours

O=C(/C=C/c1ccc2c(c1)OCO2)N1CCN(Cc2nc(-c3ccco3)cs2)CC1 [Compound I, (2E)-3-(2H-1,3-benzodioxol-5-yl)-1-(4-{[4-(furan-2-yl)-1,3-thiazol-2-yl]methyl}piperazin-1-yl)prop-2-en-1-one]
CHIKV-GFP fluorescence, relative percent infection (CHIKV-GFP reporter virus): more effective in A549 cells
IC50 (CHIKV-GFP reporter virus): 10.9 µM
VEEV TC-83 infection (VEEV TC-83): the only compound reducing VEEV TC-83 infection
viral titer of RVFV (RVFV MP12): minimal effectiveness
ZIKV viral titer (Zika virus (ZIKV)): no obvious reduction
CHIKV 181/25 viral titer by time of compound addition (CHIKV 181/25 [1]): relatively similar reduction of viral titer across all timepoints

Sc1nnc2c(n1)[nH]c1ccccc12 [Compound III, 5H-[1,2,4]Triazino[5,6-b]indole-3-thiol]
IC50 (CHIKV-GFP reporter virus): 2.82 µM
infection of CHIKV 181/25 (CHIKV 181/25 [2]): didn't reduce infection
percentage of VEEV TC-83 infected cells (VEEV TC-83): reduced the percentage of VEEV TC-83 infected cells
ZIKV viral titer (Zika virus (ZIKV)): some minimal effect
CHIKV 181/25 viral titer by time of compound addition (CHIKV 181/25 [1]): relatively similar reduction of viral titer across all timepoints

Cn1c(=N)sc2c3ccccc3ccc21 [Compound IV, 3-methyl-2H,b3H-naphtho[2,1-d][1,3]thiazol-2-imine]
CHIKV-GFP fluorescence, relative percent infection (CHIKV-GFP reporter virus): greater inhibition of virus infection in HeLa cells
IC50 (CHIKV-GFP reporter virus): 2.59 µM
percentage of VEEV TC-83 infected cells (VEEV TC-83): reduced the percentage of VEEV TC-83 infected cells
viral titer of RVFV (RVFV MP12): significantly reduced titer
ZIKV viral titer (Zika virus (ZIKV)): strong reduction
CHIKV 181/25 viral titer by time of compound addition (CHIKV 181/25 [1]): strongest reduction with pre-treatment, with lessened efficacy at each consecutive timepoint; also recorded: consecutively reduced levels of efficacy at later timepoints
reduction of HeLa cell viability (HeLa cells): 23.8%
reduction of A549 cell viability (A549 cells): 29%
